For 16 compounds, TGI and GI50 results are on record in PubChem BioAssay (NCI).

Structures are written as SMILES. Several values for one entry are separate records, joined by “and”; a condition that tells them apart may be missing. Equal entries are not always repeated.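 Each compound was tested at five concentrations against cells in 96-well plates for 48 hours. GI50: concentration for 50% inhibition of growth. TGI: total growth inhibition.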

Among the test systems are A498 renal; EKVX NSCLC; HCT-15 colon; IGROV1 ovarian; MALME-3M melanoma; NCI-H23 lung; RPMI-8226 leukemia; SK-MEL-5 melanoma; DU-145 prostate.
Common to all, as to assay: inhibition of tumour cell growth, NCI panel, 48 h

For the compound `COC1CCC2C(NS(=O)(=O)c3ccc(C)cc3)CCCC2O1` (stereo not given) (tested in a mixture with another compound), the TGI in the assay with A498 renal, in the assay with EKVX NSCLC, in the assay with HCT-15 colon, with IGROV1 ovarian, with MALME-3M melanoma and in the assay on NCI-H23 lung was above 34.5 µM each time. Besides, the TGI stood at 14.7 µM in the assay with RPMI-8226 leukemia and 19.4 µM in the assay with SK-MEL-5 melanoma.
As for `C/C(CC(=O)CCC(=O)Nc1cccc(C(F)(F)F)c1)=N\NC(=O)NN`, the TGI in the assay on A498 renal, in the assay with EKVX NSCLC, in the assay with HCT-15 colon, with IGROV1 ovarian, in the assay on MALME-3M melanoma and with NCI-H23 lung was above 100 µM in each case. The TGI with RPMI-8226 leukemia and in the assay on SK-MEL-5 melanoma was above 100 µM throughout.
Turning to `CCOC(=O)CN1C(=O)c2cccc3cc([N+](=O)[O-])cc(c23)C1=O`, the TGI is 30.6 µM with A498 renal; 28.6 µM in the assay with EKVX NSCLC; 3.47 µM with HCT-15 colon; 14.8 µM with IGROV1 ovarian; 5.23 µM with MALME-3M melanoma; 4.52 µM with NCI-H23 lung. In addition, in the assay with SK-MEL-5 melanoma, the TGI is 25.5 µM.
For `Cc1cc(C)nc(NS(=O)(=O)c2ccc(NC(=O)c3ccc(Cl)c4c(Nc5ccc(S(=O)(=O)Nc6nc(C)cc(C)n6)cc5)c5ccccc5nc34)cc2)n1`, the TGI is 57.4 µM in the assay on A498 renal; 88.8 µM in the assay with EKVX NSCLC; above 100 µM with HCT-15 colon; above 100 µM in the assay on IGROV1 ovarian; 53.5 µM with MALME-3M melanoma; 39.7 µM with NCI-H23 lung. The TGI in the assay with RPMI-8226 leukemia is above 100 µM; with SK-MEL-5 melanoma it was 73.1 µM.
For `O=CN/C=C/c1cc(O)ccc1O`, the TGI in the assay on A498 renal is above 100 µM; in the assay with DU-145 prostate, above 100 µM; in the assay with EKVX NSCLC it was 35.6 µM; with HCT-15 colon, 28.2 µM; with IGROV1 ovarian, 71.4 µM; with MALME-3M melanoma, 35.6 µM. For the same compound, the TGI with NCI-H23 lung stood at 43.7 µM; in the assay on RPMI-8226 leukemia it was 78.2 µM; in the assay with SK-MEL-5 melanoma it was 39.3 µM.
Regarding `O=C1/C(=C/c2ccccc2)CN(C(=O)C(Cl)(Cl)Cl)C/C1=C\c1ccccc1`, the TGI in the assay with A498 renal worked out at 13.7 µM; in the assay on HCT-15 colon, 3.58 µM; in the assay on IGROV1 ovarian, 5.32 µM; in the assay on MALME-3M melanoma it was 6.01 µM; in the assay on NCI-H23 lung, 6.8 µM; in the assay with RPMI-8226 leukemia, 0.314 µM. Moreover, in the assay on SK-MEL-5 melanoma, the TGI is 2.36 µM.
For the compound `N#CC(c1ccc(Cl)cc1)c1cccc(C(C#N)c2ccc(Cl)cc2)n1` (stereo not given), the TGI with A498 renal is 10.9 µM; in the assay with EKVX NSCLC, above 100 µM; in the assay with MALME-3M melanoma it was above 100 µM; in the assay on NCI-H23 lung, 57 µM; in the assay on RPMI-8226 leukemia it was above 100 µM.
For the compound `CN(C)C(=N)c1ccccc1`, the TGI with MALME-3M melanoma and in the assay with NCI-H23 lung was above 100 µM each time.
For `O=C(O)c1ccccc1[Se][Se]c1ccccc1C(=O)O`, the TGI in the assay with A498 renal, in the assay with HCT-15 colon, in the assay with IGROV1 ovarian, in the assay with MALME-3M melanoma, with NCI-H23 lung and with RPMI-8226 leukemia was above 100 µM throughout. Also, the TGI in the assay on SK-MEL-5 melanoma is above 100 µM.
For `O=C(COc1ccc(Br)cc1Br)N1N=C(c2ccc([N+](=O)[O-])o2)CC1(O)c1ccccc1` (stereo not given), the TGI worked out at 23.8 µM in the assay on A498 renal; 9.59 µM in the assay on EKVX NSCLC; 18.7 µM with HCT-15 colon; 75.9 µM with IGROV1 ovarian; 25.1 µM in the assay with MALME-3M melanoma; 36 µM with NCI-H23 lung. Also, the values for the TGI with RPMI-8226 leukemia and in the assay on SK-MEL-5 melanoma were 8.96 µM and 16.1 µM, respectively.
`COC(=O)[C@@H]1[C@H](O)[C@H](C)[C@H](O)[C@@](C)(O)/C=C\C=C(C)C(=O)Nc2c(C)c(OC(C)=O)c3c(c2O)C(=O)C(C)=C2OCOC(=C23)C(C)=C[C@@](C)(O)[C@H](O)[C@@H](C)[C@H]1OC(C)=O`: the TGI with A498 renal was above 100 µM; in the assay on DU-145 prostate it was above 66.9 µM; with EKVX NSCLC it was above 100 µM; in the assay with HCT-15 colon, > 100 µM and 66.9 µM; in the assay on IGROV1 ovarian, > 100 µM and 66.9 µM; with MALME-3M melanoma, > 100 µM and 66.9 µM and 88.6 µM. The TGI in the assay with NCI-H23 lung is > 100 µM and 66.9 µM and 47.8 µM; in the assay on RPMI-8226 leukemia, > 100 µM and 66.9 µM and 96.5 µM; in the assay on SK-MEL-5 melanoma, > 100 µM and 66.9 µM and 38.4 µM. Moreover, the GI50 in the assay with EKVX NSCLC was above 66.9 µM; in the assay with HCT-15 colon it was 42.5 µM; in the assay with RPMI-8226 leukemia, 24.1 µM; with SK-MEL-5 melanoma it was 20.5 µM.
Take `O=C(O)CCc1coc2ccc(O)cc12`: the TGI with A498 renal, in the assay with EKVX NSCLC, with HCT-15 colon, in the assay on IGROV1 ovarian, in the assay with NCI-H23 lung and in the assay on RPMI-8226 leukemia was above 100 µM throughout. The TGI in the assay on SK-MEL-5 melanoma was above 100 µM.
For the compound `COc1ccc2c3c1C(=O)CCCC3CO2` (stereo not given), the TGI with A498 renal, in the assay with HCT-15 colon, in the assay on IGROV1 ovarian, in the assay on MALME-3M melanoma, in the assay with NCI-H23 lung and with RPMI-8226 leukemia was above 100 µM in each case. In the assay with SK-MEL-5 melanoma, this compound yielded a TGI above 100 µM.
`C=C1C(=O)C23CC1CCC2C12CO[C@@H]4OCC(C)(CC[C@@H]1OC3=O)C42` (stereo not given in full): the TGI was 34.8 µM in the assay with A498 renal; 32.1 µM in the assay on EKVX NSCLC; 7.88 µM with HCT-15 colon; 14.1 µM in the assay on IGROV1 ovarian; 4.14 µM with MALME-3M melanoma; 16.6 µM in the assay with NCI-H23 lung. Besides, the TGI in the assay with RPMI-8226 leukemia was found to be 19 µM; in the assay on SK-MEL-5 melanoma it was 28.3 µM.
`COc1ccccc1C12OC(=O)C1(C)Oc1ccccc1C2=O` (stereo not given): the TGI with A498 renal, in the assay with EKVX NSCLC, with HCT-15 colon, in the assay with IGROV1 ovarian, in the assay with MALME-3M melanoma and in the assay on NCI-H23 lung was above 100 µM each time. Further, the TGI in the assay on RPMI-8226 leukemia and in the assay with SK-MEL-5 melanoma was above 100 µM in each case.
On to `O=S1(=O)c2ccccc2NC(c2ccc3ccccc3c2)CC1c1ccccc1F` (stereo not given), for which the TGI in the assay on A498 renal, in the assay on EKVX NSCLC, in the assay on HCT-15 colon, with IGROV1 ovarian, in the assay on MALME-3M melanoma and in the assay on NCI-H23 lung was above 100 µM in each case. Besides, the TGI with RPMI-8226 leukemia and in the assay with SK-MEL-5 melanoma was above 100 µM throughout.
